The text below walks through data of patent US6864086B2, “Nitric oxide-scavenging system for culturing oocytes, embryos, or other cells” (Board of Supervisors of Louisiana State University and …, priority 1998, dated 2005).

Values joined by “and” are separate entries in the source; they are usually repeats but may differ in a detail not shown here. Equal entries are not always repeated.

Holding throughout (format): cell-based
One assay concerns bovine blastocysts. Kind of assay: Example 8 supplemental: blastocyst cell number by Hoechst 33342 stain. The note with it: 8 days after insemination; Hb 1 μg/ml added to culture medium; vs. 124.2±8.4. How it is done:
In Example 8, bovine follicular oocytes were collected from November 1996 to May 1997, and matured and fertilized in culture. (Oocytes collected during summer and early fall were not used in this study, to avoid interference from environmental heat stress on in vitro survival of embryos.) IVF embryos were collected at 18 h post-insemination and cultured in mBECM supplemented with FBS (10%, v/v), to which 0 or 1 μg/ml Hb (from bovine, mainly methemoglobin, H-2500, Sigma Co.) was added. Development of embryos to the 2-cell, 8-cell, 16-cell, morula, and blastocyst stages was monitored 48, 60, 120, 144 and 192 h post-insemination, respectively. As a supplemental experiment, some blastocysts in each treatment (20 or 28) were randomly collected, and the cell number of the blastocysts was counted by use of Hoechst stain 33342 and a fluorescent microscope (Diaphod, Nikkon, Tokyo, Japan). This experiment used 1675 embryos in 25 replicates, with IVF embryos randomly allotted among treatments.

Assay [1] deals with bovine embryos co-cultured with granulosa cells. Kind of assay: Example 4: Hb (1 or 10 μg/ml) added to mBECM-C, embryos co-cultured with granulosa cells. How it is done:
(§1) mBECM containing 10 μM β-mercaptoethanol was used to culture embryos, as described in J. Lim et al., “Roles of growth factors in the development of bovine embryos fertilized in vitro and cultured singly in a defined medium,” Reprod. Fertil. Dev., 8, 1199-1205 (1996). To culture individual 8-cell embryos we used mBECM supplemented with 1 ng/ml platelet derived growth factor type AB (PDGF; Upstate Biotechnology Inc., Lake Placid, N.Y.), 1 ng/ml transforming growth factor-β (TGF; R & D System, Minneapolis, Minn.), 50 ng/ml arachidonic acid (AA; Cayman Chemical Co., Ann Arbor, Mich.), 100 μM glutathione (GSH; Sigma Co.) and 1 mg/ml polyvinyl alcohol (PVA) (mBECM-S). mBECM to which 10% (v/v) FBS was added (mBECM-C) was used for co-culturing inseminated zygotes with CGs and for producing 8-cell embryos. Osmolarity of the medium was maintained within the range of 265-290 mOsm.
(§2) The bovine cumulus-oocyte complexes (COCs) used were collected in Madison, Wis. (BOMED, Inc.), and were shipped in 2-ml of maturation medium in a battery powered incubator via overnight express mail service. Oocytes matured during transit and arrived within 24 h after exposure to maturation medium, pre-equilibrated at 39° C. in 5% CO2 in air. At 22-24 h after exposure to the medium, the COCs were inseminated in vitro as described in J. Lim et al., “Intracytoplasmic glutathione concentration and the role of β-mercaptoethanol in preimplantation development of bovine embryos,” Theriogenology, 46, 429-439 (1996). At 18 h post-insemination, COCs were cultured in groups (30-35 embryos) in a 4-well multidish (Nunc, Roskilde, Denmark) containing 0.8-ml of mBECM-C. Embryos were dislodged from CGs at 36-48 h post-insemination.
(§3) In Example 1, embryos (83-85 per group) collected 18 h post-insemination were cultured in mBECM-C, to which 0, 0.008, or 0.04 mM SNP was added at 18 or 60 h post-insemination. In Example 2, 8-cell embryos (80 per group) were produced in a co-culture system containing CGs and mBECM-C, and then beginning at 60 h post-insemination were cultured singly in a defined culture medium (mBECM-S), to which 0, 0.0016, 0.008, or 0.04 mM of SNP (S-0501, Sigma Co.) was added. In Example 3 embryos, either uncleaved (n=99) or developed to the 2-cell stage (90), were collected 48 h post-insemination; and cleaved embryos, either developed to the morula stage (69) or degenerate (63) were collected 144 h post-insemination. NO metabolites were then measured in the embryos. In Example 4, three groups of 95 zygotes each were co-cultured with CGs in mBECM-C, to which 0, 1, or 10 μg/ml Hb (bovine, mainly methemoglobin, H-2500, Sigma Co.) was added. […] Inseminated oocytes (104 per group) were co-cultured with CGs in MBECM-C up to 192 h post-insemination; and Hb (1 μg/ml) was added to the medium at 18, 60, or 144 h post-insemination. In Example 6, inseminated oocytes (93 per group) were cultured in the presence or absence of CGs in mBECM-C to which either 0 or 1 μg/ml Hb was added. In Example 7, 8-cell embryos (100 per group), obtained after culture in mBECM-C supplemented with Hb (1 μg/ml), were cultured singly in mBECM-S, with or without Hb.
Oocytes or 8-cell embryos were randomly and equally allocated to each treatment group. In Examples 1, 2, and 4-7, oocytes or embryos that had developed to the 2-cell, 8-cell, >8-cell, 16-cell morula, and blastocyst stages were individually scored ‘1’ (developed) at 48, 60, 96, 120, 144 and 192 h post-insemination, respectively. […] Sums of the scores in each stage of development were evaluated by analysis of variance (ANOVA) using the general linear model (PROC-GLM) in the SAS program software. In Example 3, concentrations of NO metabolites in embryos were subjected to ANOVA. […] Differences were regarded as statistically significant where P values were less than 0.05.

The test system of assay [2] is 8-cell bovine embryos cultured singly. Kind of assay: Example 7: Hb (1 μg/ml) in mBECM-S, 8-cell embryos derived from Hb-containing co-culture, cultured singly. The method, then: as §1, §2
as §3, with “In Example 7, 8-cell embryos (100 per group), obtained after culture in mBECM-C supplemented with Hb (1 μg/ml), were cultured singly in mBECM-S, with or without Hb.” left out
Oocytes or 8-cell embryos were randomly and equally allocated to each treatment group. In Examples 1, 2, and 4-7, oocytes or embryos that had developed to the 2-cell, 8-cell, >8-cell, 16-cell morula, and blastocyst stages were individually scored ‘1’ (developed) at 48, 60, 96, 120, 144 and 192 h post-insemination, respectively. […] Sums of the scores in each stage of development were evaluated by analysis of variance (ANOVA) using the general linear model (PROC-GLM) in the SAS program software. […]

Regarding hemoglobin [Hb], in the assay with bovine blastocysts, the “number of blastocyst cells” value is listed as 128.6±7.1. Further, in assay [1] (Hb 1 μg/ml in mBECM-C), the “Percent of Embryos Developed to 2-cell” value is 81%; the “Percent of Embryos Developed to 16-cell” value was 52%; the “Percent of Embryos Developed to >8-cell” value was 60%; the “Percent of Embryos Developed to Blastocyst” value was 34% and 34^b %. Also, in assay [1] (Hb 1 μg/ml in mBECM-C), the “Percent of Embryos Developed to Morula” value is given as 46%. In assay [1] (Hb 10 μg/ml in mBECM-C), the “Percent of Embryos Developed to 2-cell” value turned out to be 78%; the “Percent of Embryos Developed to 16-cell” value is given as 43%; the “Percent of Embryos Developed to >8-cell” value is 53%; the “Percent of Embryos Developed to Blastocyst” value was 27% and 27^ab %. Also, in assay [1] (Hb 10 μg/ml in mBECM-C), the “Percent of Embryos Developed to Morula” value was determined as 41%. Besides, the “Number of embryos developed to >8-cell” value in assay [2] (Hb 1 μg/ml present in mBECM-S, 100 8-cell embryos, examined 96 h) came to 68. Further, the “Number of embryos developed to 16-cell” value in assay [2] (Hb 1 μg/ml present in mBECM-S, 100 8-cell embryos, examined 120 h) was found to be 44. Moreover, the “Number of embryos developed to Morula” value in assay [2] (Hb 1 μg/ml present in mBECM-S, 100 8-cell embryos, examined 144 h) was 26. Also, in assay [2] (Hb 1 μg/ml present in mBECM-S, 100 8-cell embryos, examined 192 h), the “Number of embryos developed to Blastocyst” value was determined as 8. In addition, in assay [2] (Hb added to mBECM-S, P>0.09), the “effect on proportions of 8-cell embryos developing to each embryonic stage” value is “no significant effect”.
